Measured values taken from ChEMBL document CHEMBL3044573, “Neurological activities of lapachol and its furano derivatives from Kigelia africana” (Med Chem Res, 2013).
Calls of active or inactive are those of the source. The rule behind the calls is not given here.

Key:
Mus musculus [1] = experiment: Anxiolytic activity in albino Mus musculus (mouse) assessed as increase in number of open arm enteries at 50 mg/kg, ip administered 30 min prior to testing by elevated-plus maze test relative to control; format: functional, organism-based; design: dose 50 mg/kg
Mus musculus [2] = experiment: Anxiolytic activity in albino Mus musculus (mouse) assessed as increase in number of open arm enteries at 100 mg/kg, ip administered 30 min prior to testing by elevated-plus maze test relative to control; format: functional, organism-based; design: dose 100 mg/kg
Mus musculus [3] = experiment: Antidepressant activity in albino Mus musculus (mouse) assessed as reduction in immobility time at 50 mg/kg, ip administered 30 min prior to testing by forced-swim test relative to control; format: functional, organism-based; design: dose 50 mg/kg
Mus musculus [4] = experiment: Anxiolytic activity in albino Mus musculus (mouse) assessed as increase in time spent on open arm at 50 mg/kg, ip administered 30 min prior to testing by elevated-plus maze test relative to control; format: functional, organism-based; design: dose 50 mg/kg
Mus musculus [5] = experiment: Stimulation of central nervous system in albino Mus musculus (mouse) assessed as increase in rearing behaviour at 50 mg/kg, ip administered 30 min prior to testing by open-feild test relative to control; format: ADME, organism-based; design: dose 50 mg/kg, route intraperitoneal; settings: in vivo, 0.5 h
Mus musculus [6] = experiment: Antidepressant activity in albino Mus musculus (mouse) assessed as reduction in immobility time at 100 mg/kg, ip administered 30 min prior to testing by forced-swim test relative to control; format: functional, organism-based; design: dose 100 mg/kg
Mus musculus [7] = experiment: Anxiolytic activity in albino Mus musculus (mouse) assessed as increase in time spent on open arm at 100 mg/kg, ip administered 30 min prior to testing by elevated-plus maze test relative to control; format: functional, organism-based; design: dose 100 mg/kg
Mus musculus [8] = experiment: Stimulation of central nervous system in albino Mus musculus (mouse) assessed as increase in number of lines crossed at 50 mg/kg, ip administered 30 min prior to testing by open-feild test relative to control; format: ADME, organism-based; design: dose 50 mg/kg, route intraperitoneal; settings: in vivo, 0.5 h
Mus musculus [9] = experiment: Anxiolytic activity in albino Mus musculus (mouse) assessed as decrease in rearing behaviour at 100 mg/kg, ip administered 30 min prior to testing by open-field test relative to control; format: functional, organism-based; design: dose 100 mg/kg
Mus musculus [10] = experiment: Anxiolytic activity in albino Mus musculus (mouse) assessed as decrease in rearing behaviour at 50 mg/kg, ip administered 30 min prior to testing by open-field test relative to control; format: functional, organism-based; design: dose 50 mg/kg
Mus musculus [11] = experiment: Stimulation of central nervous system in albino Mus musculus (mouse) assessed as increase in rearing behaviour at 100 mg/kg, ip administered 30 min prior to testing by open-feild test relative to control; format: ADME, organism-based; design: dose 100 mg/kg, route intraperitoneal; settings: in vivo, 0.5 h
Mus musculus [12] = experiment: Stimulation of central nervous system in albino Mus musculus (mouse) assessed as increase in number of lines crossed at 100 mg/kg, ip administered 30 min prior to testing by open-feild test relative to control; format: ADME, organism-based; design: dose 100 mg/kg, route intraperitoneal; settings: in vivo, 0.5 h
Mus musculus [13] = experiment: Antidepressant activity in albino Mus musculus (mouse) assessed as reduction in immobility time at 15 mg/kg, ip administered 30 min prior to testing by forced-swim test relative to control; format: functional, organism-based; design: dose 15 mg/kg

Row | Compound | Activity (Mus musculus [1]) | Activity (Mus musculus [2]) | Activity (Mus musculus [3]) | Activity (Mus musculus [4]) | Activity (Mus musculus [5]) | Activity (Mus musculus [6]) | Activity (Mus musculus [7]) | Activity (Mus musculus [8]) | Activity (Mus musculus [9]) | Activity (Mus musculus [10]) | Activity (Mus musculus [11]) | Activity (Mus musculus [12]) | Activity (Mus musculus [13])
1 | CC[C@H](CC[C@@H](C)[C@H]1CC[C@H]2[C@@H]3CC=C4C[C@@H](O)CC[C@]4(C)[C@H]3CC[C@]12C)C(C)C [BETA-SITOSTEROL] | Active | Active | inactive | inactive | Toxic | inactive | inactive | Toxic | – | – | – | – | –
2 | CC(=O)c1cc2c(o1)C(=O)c1ccccc1C2=O [NAPABUCASIN] | – | – | Active | – | – | Active | – | Toxic | Active | Active | – | – | –
3 | CC1(C)C=CC2=C(O1)C(=O)c1ccccc1C2=O | inactive | inactive | – | inactive | – | – | inactive | – | – | – | – | – | –
4 | CC(O)c1cc2c(o1)C(=O)c1ccccc1C2=O (stereo unspecified) | – | Active | Active | – | – | – | Active | – | – | Active | Toxic | Toxic | –
5 | CN(C)CCCN1c2ccccc2CCc2ccccc21 | – | – | – | – | – | – | – | – | – | – | – | – | Active
6 | CC(C)=CCC1=C(O)C(=O)c2ccccc2C1=O [LAPACHOL] | Active | Active | Active | inactive | – | – | inactive | – | – | – | Toxic | Toxic | –
